Data set [1] concerns isolated forebrain mitochondria. As to the kind of experiment: Oligomycin-induced state 4 respiration and ΔΨm in isolated forebrain mitochondria. It counts as biochemical. The note with it: for effect on GABA- or Ub5-induced respiration/leak: added after GABA or Ub5, picrotoxin 1 mM, PLP 10 mM. As to the method:
Turning to FIGS. 10a and b, oligomycin-induced state 4 was initiated in isolated forebrain mitochondria using succinate. Tracings of O2 consumption (FIG. 10a) with simultaneous ΔΨm measurement (FIG. 10b) are depicted. Numbers (FIG. 10a) are rates of respiration (nmol·mL-1·min-1·mg mitochondrial protein-1). GABA (10 mM) or Ub5 ([…]) were added. Aralar was inhibited with pyridoxal 5′-phosphate (PLP)(10 mM). Picrotoxin (GABAA receptor antagonist (1 mM)) and GABA or Ub5 alone served as controls. Black solid lines are slopes of ΔΨm prior to and after inhibitor. Decrease in respiration rate with concomitant stabilization or rise in ΔΨm indicates inhibition of leak. […] Thus, PLP blocked GABA import via Aralar. […] Aralar is best described as an aspartate-glutamate carrier within mitochondria. Aralar is the solute that exports aspartate from neuronal mitochondria in exchange for glutamate plus a proton. Thus, Aralar causes leak by translocating protons across the inner mitochondrial membrane during solute transport. Aralar causes leak that can degrade ΔΨm. Aralar is a neuronal transporter that sequesters GABA within the mitochondrial matrix. Many anesthetic agents bind to the GABAA receptor and potentiate GABAergic signaling.

Data set [2] concerns isolated perfused murine hearts. As to the kind of experiment: Surface ECG of isolated perfused murine hearts. The note with it: isolated perfused heart. As to the method:
In FIGS. 2a and 2b, surface ECGs were recorded continuously for isolated perfused murine hearts that were prepared and stabilized. Hearts were exposed to either decylubiquinone or ubiquione-5. […] Thus, quinone analogs suppressed electrical signaling in the heart in a reversible manner.

The subject of data set [3] is isolated mitochondria. As to the kind of experiment: Complex II-dependent state 4 (leak) respiration with simultaneous mitochondrial membrane potential measurement. It counts as biochemical. The settings on record: succinate in the presence of oligomycin, FIG. 1. An excerpt: FIGS. 1a-c are representative tracings of complex II-dependent state 4 respiration (leak respiration) using succinate in the presence of oligomycin are depicted above and tracings of simultaneously measured mitochondrial membrane potential (ΔΨ) are shown below, for (a) propofol, (b) decylubiquinone, and (c) ubiquinone-5;
In FIG. 1, representative tracings of Complex II-dependent state 4 respiration (leak respiration) using succinate in the presence of oligomycin are depicted in the top three curves and tracings of simultaneously measured mitochondrial membrane potential (ΔΨ) are shown in the bottom three curves. The numbers in the tracings above show rates of oxygen consumption (nmol·mL-1·min-1·mg mitochondrial protein-1). Addition of propofol (FIG. 1 a) decylubiquinone (DB) (FIG. 1b) or ubiquinone-5 (FIG. 1c) are indicated. ΔΨ was determined as a function of triphenylphosphonium (TPP+) concentration in the bath. […] This mechanism is highly reminiscent of the effect of the anesthetic, propofol (FIG. 1a), in isolated mitochondria.

With Picrotoxin, the “effect on GABA- or Ub5-induced respiration/leak” value in data set [1] is “minimal effect”.
For `Cc1ncc(COP(=O)(O)O)c(C=O)c1O` [PLP, pyridoxal 5′-phosphate], in data set [1] (PLP 10 mM added after GABA or Ub5), the “effect on ΔΨm after GABA or Ub5” value is recorded as “stabilized ΔΨm”. In data set [1] (PLP 10 mM added after Ub5), the “effect on ΔΨm with Ub5” value is recorded as “acutely increased ΔΨm”. Besides, in data set [1], the “effect on GABA- or Ub5-induced respiration/leak” value was “normalized respiration to pre-GABA or Ub5 levels”.
As to `NCCCC(=O)O` [GABA], the “proton leak (respiration and ΔΨm)” value in data set [1] (succinate, oligomycin-induced state 4, GABA (10 mM) or Ub5 (100 mM), FIG. 10) is on record as “induced a slow increase in proton leak”.
As for `CCCCCCCCCCC1=C(C)C(=O)C(OC)=C(OC)C1=O` [decylubiquinone], the “ECG upon cessation of exposure and washout” value in data set [2] (after washout) was “sinus rhythm normalized”. Besides, the “surface ECG effect during exposure” value in data set [2] (during exposure, FIG. 2) is “rapidly induced bradycardia that persisted throughout the duration of exposure”. Moreover, the “proton leak (state 4 respiration)” value in data set [3] is “increased proton leak”. Further, the “mitochondrial membrane potential (ΔΨ)” value in data set [3] (determined via TPP+) is reported as “decline in ΔΨ”.
